Columns and labels:
[1] = tested on: H1N1 (influenza A/New Caledonia/20/99); experiment: Antiviral effect on A549 cells infected with H1N1; assay type: cell-based, H1N1 A/New Caledonia/20/99 virus; details: Influenza A virus, MOI 0.1, 48 h post-infection, MUNANA neuraminidase readout
Outline: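 A549 cells dosed with test compounds over a concentration range and infected at once with clinical isolate H1N1 A/New Caledonia/20/99 (MOI 0.1) in DMEM with […] TPCK trypsin, 37 °C. At 48 h, supernatant neuraminidase activity measured with MUNANA substrate (1 h, 37 °C); 4-MU fluorescence at ex 365/em 450 nm.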

MAXF 401 = experiment: Cytotoxicity, propidium iodide-based monolayer assay; assay type: cell-based; details: Homo sapiens, MAXF401, 96 h; MAXF 401, breast adeno carcinoma; four days of treatment; T/C=50%; read-out: Absolute IC50
Procedure: (§1) The cytotoxicity was tested for compounds of the invention on five different cell-lines, namely LXFL 1121, MAXF 401, MMXF L-636, PRXF PC-3M and UXF 1138 which are respectively lung large cell carcinoma, breast adeno carcinoma, multiple myeloma, prostate adeno carcinoma and uterine sarcoma.
(§2) Therefore, the compounds have a cytotoxicity against tumor cells and can be used for treating cancer. Materials and Methods Compound Handling A working stock solution of the test compounds was prepared in DMSO at a concentration of 33 mM or 8.25 mM, and small aliquots were stored at −20° C. On each day of an experiment, a frozen aliquot of the working stock solution was thawed and stored at room temperature prior to and during treatment. All liquid handling steps were performed using the Tecan Freedom EVO 200 platform. First, serial 2-fold dilutions of the 33 mM DMSO working stock solution were done in DMSO. The DMSO dilutions were then diluted 1:22 into cell culture medium in an intermediate dilution plate. Finally, 10 μl taken from the intermediate dilution plate were transferred to 140 μl/well of the final assay plate. Thus, the DMSO serial dilutions were diluted 1:330 with cell culture medium, and the DMSO concentration in the assay was 0.3% v/v. Tumor Cell Lines The cell lines used in this study were derived from solid tumors as well as from hematological malignancies. Cell lines were routinely passaged once or twice weekly and maintained in culture for up to 20 passages. Most cell lines were grown at 37° C. in a humidified atmosphere with 5% CO2 in RPMI 1640 medium (25 mM HEPES, with L-glutamine, #FG1385, Biochrom, Berlin, Germany) supplemented with 10% (v/v) fetal calf serum (Sigma, Taufkirchen, Germany) and 0.05 mg/mL gentamicin (Life Technologies, Karlsruhe, Germany). […] Briefly, cells were harvested from exponential phase cultures, counted and plated in 96 well flat-bottom microtiter plates at a cell density of 4,000 to 40,000 cells/well dependent on the cell line's growth rate. […] After an incubation period of 1-2 hours at room temperature, fluorescence (FU) was measured using the Enspire Multimode Plate Reader (excitation λ=530 nm, emission λ=620 nm) to quantify the amount of attached viable cells. Data Evaluation An assay was considered fully evaluable if the following quality control criteria were fulfilled: • Z′-factor calculated within the assay plate ≥0.5 • control/background ratio >3.0 • coefficient of variation in the growth control wells ≤30% Drug effects were expressed in terms of the percentage of the fluorescence signal, obtained by comparison of the mean signal in the treated wells with the mean signal of the untreated controls (expressed by the test-versus-control value, T/C-value [%]): […]

MMXF L-363 = experiment: as above; assay type: cell-based; details: Homo sapiens, 96 h; MMXF L-363, multiple myeloma; four days of treatment; T/C=50%; read-out: Absolute IC50
Procedure: as §1, §2

PRXF PC-3M = experiment: as above; assay type: cell-based; details: Homo sapiens, 96 h, prostate adeno carcinoma, four days of treatment, T/C=50%, read-out: Absolute IC50
Procedure: as §1, §2

UXF 1138 = experiment: as above; assay type: cell-based; details: 96 h; UXF 1138, uterine sarcoma; four days of treatment; T/C=50%; read-out: Absolute IC50
Procedure: as §1, §2

## O=C(Nc1scc(-c2ccc(Cl)c(F)c2)c1C(=O)O)c1ccccc1 [Compound #2, 2-Benzamido-4-(4-chloro-3-fluoro-phenyl)thiophene-3-carboxylic acid]
[1]
  IC50: 0.21 µM
MAXF 401
  IC50: 6.56 µM
MMXF L-363
  IC50: 11.9 µM
PRXF PC-3M
  IC50: 4.74 µM
UXF 1138
  IC50: 4.48 µM

— patent US11840527B2, “Non-fused thiophene derivatives and their uses” (ENYO PHARMA, priority 2018, dated 2023)
